Results taken from paper PMC9288506, “Compounds activating VCP D1 ATPase enhance both autophagic and proteasomal neurotoxic protein clearance” (Nature Communications, 2022).

Experiments:
Assay in all cases: biochemical
Design in all cases: Thermo Fisher in vitro kinase panel, per cent inhibition of kinase activity at 10 uM
FES (FPS) = FES (FPS) (Homo sapiens, UniProt P07332)
Protocol: (§1) Kinase profiling of SMER28 and analogs SMER28 and analogs were tested at 10 µM in a panel of 123 kinases at ThermoFisher Scientific. Follow-up of selected kinases for SMER28 and analogs was also performed at ThermoFisher Scientific. Data are shown in Supplementary Data 2 and 3. […] An inhibition of PIK3C could induce autophagy, mediated by signaling through the AKT/mTOR axis[45].

PLK1 = PLK1 (Homo sapiens, UniProt P53350)
Sequence of PLK1 (P53350 whole entry): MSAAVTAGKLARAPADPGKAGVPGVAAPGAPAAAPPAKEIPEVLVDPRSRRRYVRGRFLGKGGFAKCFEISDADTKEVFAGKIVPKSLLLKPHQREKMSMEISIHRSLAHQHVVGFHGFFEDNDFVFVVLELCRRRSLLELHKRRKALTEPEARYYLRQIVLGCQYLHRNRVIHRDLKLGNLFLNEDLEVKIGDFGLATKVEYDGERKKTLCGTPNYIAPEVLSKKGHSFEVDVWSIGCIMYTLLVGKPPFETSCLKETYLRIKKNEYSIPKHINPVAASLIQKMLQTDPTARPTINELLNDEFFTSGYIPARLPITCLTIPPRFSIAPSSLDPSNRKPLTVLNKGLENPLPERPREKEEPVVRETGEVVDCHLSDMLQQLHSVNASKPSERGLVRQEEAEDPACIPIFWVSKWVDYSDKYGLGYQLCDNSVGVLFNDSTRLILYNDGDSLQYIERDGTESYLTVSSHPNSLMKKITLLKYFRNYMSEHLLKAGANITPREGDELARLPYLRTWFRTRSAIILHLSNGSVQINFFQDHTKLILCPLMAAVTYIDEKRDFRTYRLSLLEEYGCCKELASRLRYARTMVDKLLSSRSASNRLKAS
Protocol: as §1

CDK9/cyclin T1 = CDK9/cyclin T1 (Homo sapiens, UniProt P50750)
Protocol: as §1

JAK3 = JAK3 (Homo sapiens, UniProt P52333)
Protocol: as §1

FGFR3 = FGFR3 (Homo sapiens, UniProt P22607)
Protocol: as §1

MET (cMet) = MET (cMet) (Homo sapiens, UniProt P08581)
Protocol: as §1

ACVR1B (ALK4) = ACVR1B (ALK4) (Homo sapiens, UniProt P36896)
Sequence of ACVR1B (ALK4) (P36896 whole entry): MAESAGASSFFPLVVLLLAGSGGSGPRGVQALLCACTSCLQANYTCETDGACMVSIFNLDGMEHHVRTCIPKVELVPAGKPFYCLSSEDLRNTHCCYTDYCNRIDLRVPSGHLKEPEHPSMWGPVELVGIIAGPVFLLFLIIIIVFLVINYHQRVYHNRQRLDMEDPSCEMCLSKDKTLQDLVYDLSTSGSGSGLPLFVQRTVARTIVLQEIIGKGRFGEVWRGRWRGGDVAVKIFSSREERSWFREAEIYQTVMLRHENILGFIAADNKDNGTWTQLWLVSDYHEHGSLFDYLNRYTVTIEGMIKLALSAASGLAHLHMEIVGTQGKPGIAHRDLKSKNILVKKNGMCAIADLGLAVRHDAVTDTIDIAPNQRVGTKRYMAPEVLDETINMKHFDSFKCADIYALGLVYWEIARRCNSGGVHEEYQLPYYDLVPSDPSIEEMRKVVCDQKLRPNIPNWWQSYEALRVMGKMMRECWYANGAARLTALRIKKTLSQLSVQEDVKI
Protocol: as §1

MYLK (MLCK) = MYLK (MLCK) (Homo sapiens, UniProt Q15746)
Protocol: as §1

BMX = BMX (Homo sapiens, UniProt P51813)
Sequence of BMX (P51813 whole entry): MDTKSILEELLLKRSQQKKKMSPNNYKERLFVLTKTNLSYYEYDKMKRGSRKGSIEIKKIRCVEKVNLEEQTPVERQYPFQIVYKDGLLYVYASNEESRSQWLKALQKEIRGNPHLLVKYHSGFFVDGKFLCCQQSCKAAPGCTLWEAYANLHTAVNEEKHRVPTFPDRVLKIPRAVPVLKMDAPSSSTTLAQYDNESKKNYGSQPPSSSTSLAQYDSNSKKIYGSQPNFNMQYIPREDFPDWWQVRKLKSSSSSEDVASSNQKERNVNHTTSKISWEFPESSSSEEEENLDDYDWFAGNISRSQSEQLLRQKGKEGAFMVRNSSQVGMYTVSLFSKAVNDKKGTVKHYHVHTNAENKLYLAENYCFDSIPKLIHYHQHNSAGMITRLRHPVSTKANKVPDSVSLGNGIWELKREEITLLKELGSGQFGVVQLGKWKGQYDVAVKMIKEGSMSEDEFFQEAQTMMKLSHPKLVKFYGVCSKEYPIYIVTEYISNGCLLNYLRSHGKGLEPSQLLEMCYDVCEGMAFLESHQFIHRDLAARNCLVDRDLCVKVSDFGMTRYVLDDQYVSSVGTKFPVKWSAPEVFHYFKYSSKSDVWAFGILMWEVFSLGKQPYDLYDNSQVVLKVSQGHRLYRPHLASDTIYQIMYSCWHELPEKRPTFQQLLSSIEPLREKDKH
Protocol: as §1

STK17A (DRAK1) = STK17A (DRAK1) (Homo sapiens, UniProt Q9UEE5)
Sequence of STK17A (DRAK1) (Q9UEE5 whole entry): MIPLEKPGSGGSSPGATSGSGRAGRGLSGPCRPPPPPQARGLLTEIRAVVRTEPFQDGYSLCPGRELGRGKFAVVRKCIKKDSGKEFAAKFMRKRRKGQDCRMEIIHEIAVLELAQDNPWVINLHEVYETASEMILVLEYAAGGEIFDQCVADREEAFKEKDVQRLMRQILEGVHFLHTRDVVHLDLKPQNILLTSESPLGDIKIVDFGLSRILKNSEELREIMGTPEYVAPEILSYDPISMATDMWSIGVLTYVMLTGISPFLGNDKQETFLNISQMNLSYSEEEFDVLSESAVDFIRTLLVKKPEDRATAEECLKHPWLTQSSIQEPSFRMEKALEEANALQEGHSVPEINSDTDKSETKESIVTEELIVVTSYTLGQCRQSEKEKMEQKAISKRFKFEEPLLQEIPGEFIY
Protocol: as §1

EGFR (ErbB1) T790M L858R = EGFR (ErbB1) T790M L858R (Homo sapiens, UniProt P00533, L858R/T790M)
Protocol: as §1

CDK7/cyclin H/MNAT1 = CDK7/cyclin H/MNAT1 (Homo sapiens, UniProt P50613)
Protocol: as §1

PIK3C3 (hVPS34) = PIK3C3 (hVPS34) (Homo sapiens, UniProt Q8NEB9)
Protocol: as §1

CAMK2B (CaMKII beta) = CAMK2B (CaMKII beta) (Homo sapiens, UniProt Q13554)
Sequence of CAMK2B (CaMKII beta) (Q13554 whole entry): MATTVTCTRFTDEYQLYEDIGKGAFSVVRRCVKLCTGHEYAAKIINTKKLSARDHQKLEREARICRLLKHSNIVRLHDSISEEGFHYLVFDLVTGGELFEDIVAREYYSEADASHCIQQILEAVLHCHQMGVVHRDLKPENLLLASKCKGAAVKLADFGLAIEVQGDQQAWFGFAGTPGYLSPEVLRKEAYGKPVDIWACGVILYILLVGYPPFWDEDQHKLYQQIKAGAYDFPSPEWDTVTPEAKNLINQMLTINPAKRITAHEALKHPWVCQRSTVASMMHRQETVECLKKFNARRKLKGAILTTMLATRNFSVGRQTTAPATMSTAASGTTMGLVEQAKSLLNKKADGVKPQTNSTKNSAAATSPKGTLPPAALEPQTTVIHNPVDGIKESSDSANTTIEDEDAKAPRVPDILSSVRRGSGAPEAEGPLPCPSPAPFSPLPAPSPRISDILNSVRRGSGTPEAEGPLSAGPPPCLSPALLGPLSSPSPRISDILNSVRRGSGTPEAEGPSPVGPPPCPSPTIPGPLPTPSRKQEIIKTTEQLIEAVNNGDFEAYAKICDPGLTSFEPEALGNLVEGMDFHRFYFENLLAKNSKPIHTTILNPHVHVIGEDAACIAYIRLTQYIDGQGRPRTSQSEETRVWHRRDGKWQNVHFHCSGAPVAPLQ
Protocol: as §1

PTK6 (Brk) = PTK6 (Brk) (Homo sapiens, UniProt Q13882)
Protocol: as §1

ULK2 = ULK2 (Homo sapiens, UniProt Q8IYT8)
Protocol: as §1

JAK1 = JAK1 (Homo sapiens, UniProt P23458)
Protocol: as §1

DYRK2 = DYRK2 (Homo sapiens, UniProt Q92630)
Protocol: as §1

DDR2 = DDR2 (Homo sapiens, UniProt Q16832)
Protocol: as §1

DMPK = DMPK (Homo sapiens, UniProt Q09013)
Sequence of DMPK (Q09013 whole entry): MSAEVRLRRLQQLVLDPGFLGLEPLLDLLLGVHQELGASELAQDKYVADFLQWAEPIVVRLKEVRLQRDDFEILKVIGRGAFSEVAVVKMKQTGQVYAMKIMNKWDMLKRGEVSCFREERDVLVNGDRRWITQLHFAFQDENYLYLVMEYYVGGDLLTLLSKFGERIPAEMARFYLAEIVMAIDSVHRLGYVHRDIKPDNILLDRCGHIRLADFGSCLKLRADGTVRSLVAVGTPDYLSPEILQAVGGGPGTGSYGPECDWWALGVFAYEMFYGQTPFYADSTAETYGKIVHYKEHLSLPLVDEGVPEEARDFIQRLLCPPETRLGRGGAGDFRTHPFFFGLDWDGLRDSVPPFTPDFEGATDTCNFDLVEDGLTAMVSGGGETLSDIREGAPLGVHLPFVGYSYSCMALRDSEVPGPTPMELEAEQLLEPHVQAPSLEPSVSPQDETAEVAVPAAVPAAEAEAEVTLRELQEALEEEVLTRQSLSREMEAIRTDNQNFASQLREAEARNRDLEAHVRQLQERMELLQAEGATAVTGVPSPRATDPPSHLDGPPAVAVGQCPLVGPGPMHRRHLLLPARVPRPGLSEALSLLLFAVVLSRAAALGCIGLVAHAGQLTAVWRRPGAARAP
Protocol: as §1

STK4 (MST1) = STK4 (MST1) (Homo sapiens, UniProt Q13043)
Protocol: as §1

MAPK1 (ERK2) = MAPK1 (ERK2) (Homo sapiens, UniProt P28482)
Sequence of MAPK1 (ERK2) (P28482 whole entry): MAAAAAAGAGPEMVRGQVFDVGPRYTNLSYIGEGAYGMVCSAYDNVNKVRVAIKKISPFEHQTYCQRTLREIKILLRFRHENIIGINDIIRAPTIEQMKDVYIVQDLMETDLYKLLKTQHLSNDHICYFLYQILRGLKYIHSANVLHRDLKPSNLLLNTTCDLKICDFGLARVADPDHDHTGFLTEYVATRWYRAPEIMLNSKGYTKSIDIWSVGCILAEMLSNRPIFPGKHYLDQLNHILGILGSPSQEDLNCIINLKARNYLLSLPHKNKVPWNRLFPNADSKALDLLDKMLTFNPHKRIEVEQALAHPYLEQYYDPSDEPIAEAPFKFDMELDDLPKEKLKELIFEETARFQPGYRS
Protocol: as §1

MAP3K9 (MLK1) = MAP3K9 (MLK1) (Homo sapiens, UniProt P80192)
Sequence of MAP3K9 (MLK1) (P80192 whole entry): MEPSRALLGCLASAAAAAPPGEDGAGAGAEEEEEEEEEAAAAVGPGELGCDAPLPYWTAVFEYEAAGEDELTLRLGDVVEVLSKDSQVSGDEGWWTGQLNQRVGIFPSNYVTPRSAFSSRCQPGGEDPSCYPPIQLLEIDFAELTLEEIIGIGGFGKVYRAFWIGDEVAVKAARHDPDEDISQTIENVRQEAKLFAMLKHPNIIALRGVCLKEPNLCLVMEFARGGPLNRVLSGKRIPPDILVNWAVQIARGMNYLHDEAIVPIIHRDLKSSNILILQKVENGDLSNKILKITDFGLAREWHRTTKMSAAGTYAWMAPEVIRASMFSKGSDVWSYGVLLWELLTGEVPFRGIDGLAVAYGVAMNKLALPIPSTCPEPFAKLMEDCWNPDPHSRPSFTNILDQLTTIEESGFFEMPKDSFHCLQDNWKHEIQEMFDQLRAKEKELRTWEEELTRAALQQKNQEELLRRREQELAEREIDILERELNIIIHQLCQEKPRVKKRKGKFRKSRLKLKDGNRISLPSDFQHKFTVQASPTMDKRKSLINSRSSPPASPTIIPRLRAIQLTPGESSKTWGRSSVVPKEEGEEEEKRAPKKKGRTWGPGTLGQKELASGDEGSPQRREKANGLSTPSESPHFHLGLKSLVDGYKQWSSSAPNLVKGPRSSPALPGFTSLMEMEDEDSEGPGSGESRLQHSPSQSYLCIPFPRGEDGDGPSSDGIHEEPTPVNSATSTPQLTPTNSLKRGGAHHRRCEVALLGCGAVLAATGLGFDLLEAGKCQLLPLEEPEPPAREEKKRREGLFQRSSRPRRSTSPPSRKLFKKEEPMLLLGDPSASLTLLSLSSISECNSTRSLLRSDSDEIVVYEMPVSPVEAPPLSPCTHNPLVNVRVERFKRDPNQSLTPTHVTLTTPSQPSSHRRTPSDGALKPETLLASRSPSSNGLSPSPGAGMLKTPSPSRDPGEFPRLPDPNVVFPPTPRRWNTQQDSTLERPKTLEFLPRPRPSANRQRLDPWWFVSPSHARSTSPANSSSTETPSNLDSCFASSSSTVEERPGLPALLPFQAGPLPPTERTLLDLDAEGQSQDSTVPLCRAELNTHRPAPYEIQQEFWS
Protocol: as §1

FGFR1 V561M = FGFR1 V561M (Homo sapiens, UniProt P11362, V561M)
Protocol: as §1

INSRR (IRR) = INSRR (IRR) (Homo sapiens, UniProt P14616)
Protocol: as §1

SMILES: C=CCNc1ncnc2ccc(Br)cc12 [SMER28]
- inhibition at 10 µM (FES (FPS)): 8%
- inhibition at 10 µM (PLK1): 11%
- inhibition at 10 µM (CDK9/cyclin T1): 40%
- inhibition at 10 µM (JAK3): 14%
- inhibition at 10 µM (FGFR3): -7%
- inhibition at 10 µM (MET (cMet)): 8%
- inhibition at 10 µM (ACVR1B (ALK4)): -19%
- inhibition at 10 µM (MYLK (MLCK)): 12%
- inhibition at 10 µM (BMX): 11%
- inhibition at 10 µM (STK17A (DRAK1)): 34%
- inhibition at 10 µM (EGFR (ErbB1) T790M L858R): 15%
- inhibition at 10 µM (CDK7/cyclin H/MNAT1): 34%
- inhibition at 10 µM (PIK3C3 (hVPS34)): 12%
- inhibition at 10 µM (CAMK2B (CaMKII beta)): 4%
- inhibition at 10 µM (PTK6 (Brk)): 0%
- inhibition at 10 µM (ULK2): 3%
- inhibition at 10 µM (JAK1): -13%
- inhibition at 10 µM (DYRK2): 67%
- inhibition at 10 µM (DDR2): 0%
- inhibition at 10 µM (DMPK): 57%
- inhibition at 10 µM (STK4 (MST1)): 11%
- inhibition at 10 µM (MAPK1 (ERK2)): -2%
- inhibition at 10 µM (MAP3K9 (MLK1)): -2%
- inhibition at 10 µM (FGFR1 V561M): 9%
- inhibition at 10 µM (INSRR (IRR)): 5%
